Series [1] in a line: Induction of NO release assessed as nitrite formation at 0.1 mM in phosphate buffer saline at pH 7.4 in absence of L-cysteine measured after 1 hr by Griess assay. (In general: The Griess reaction detects nitrite, a stable product of nitric oxide.)
A short description of series [2]: Induction of NO release assessed as nitrite formation at 0.1 mM in phosphate buffer saline at pH 7.4 in presence of 0.5 mM L-cysteine measured after 1 hr by Griess assay.
Series [3] can be described thus: Induction of NO release assessed as nitrite formation at 0.1 mM in phosphate buffer saline at pH 7.4 in presence of 5 mM L-cysteine measured after 1 hr by Griess assay.
A short description of series [4]: Solubility of the compound in water at 5 mg incubated in magnetic stirrer for 1 hr. The format is physicochemical.
A short description of series [5]: Solubility in pH 6 phosphate buffer /5% cremophor EL/0.3% DMSO/0.2 mg/ml bac solution at 10 mg incubated in magnetic stirrer for 1 hr. The format is physicochemical. The note with it: pH 6, 1 h.
Series [6] in a line: Ionization constant, pKa of the compound by potentiometric titration. The format is physicochemical.
Series [7] in a line: n-Octanol-water distribution coefficient, log D of the compound at pH 7.4 after 20 mins by UV-spectrometric based shake-flask method. In kind it is physicochemical.
The subject of series [8] is Oryctolagus cuniculus. The series is described as follows: Antiglaucoma activity in hypertonic saline-induced New Zealand white rabbit transient ocular hypertensive model assessed as IOP lowering efficacy at 30 uL administered topically immediately after hypertonic saline injection measured at 120 mins post dose. In kind it is functional.
The subject of series [9] is Oryctolagus cuniculus. The series is described as follows: Antiglaucoma activity in hypertonic saline-induced New Zealand white rabbit transient ocular hypertensive model assessed as IOP lowering efficacy at 30 uL administered topically immediately after hypertonic saline injection measured at 60 mins post dose. In kind it is functional.
The subject of series [10] is Oryctolagus cuniculus. The series is described as follows: Antiglaucoma activity in hypertonic saline-induced New Zealand white rabbit transient ocular hypertensive model assessed as IOP lowering efficacy at 30 uL administered topically immediately after hypertonic saline injection measured at 30 mins post dose. The format is functional.
The nature of series [11]: Ionization constant of the compound assessed as ionization level by potentiometric titration. The format is physicochemical.
Series [12] concerns Oryctolagus cuniculus. The series is described as follows: Antiglaucoma activity in hypertonic saline-induced New Zealand white rabbit transient ocular hypertensive model assessed as IOP lowering efficacy at 30 uL administered topically immediately after hypertonic saline injection measured at 240 mins post dose. In kind it is functional.
Series [13] has as its system Oryctolagus cuniculus. Kind of series: Antiglaucoma activity in hypertonic saline-induced New Zealand white rabbit transient ocular hypertensive model assessed as IOP lowering efficacy at 0.5% administered topically immediately after hypertonic saline injection measured at 60 mins post dose. In kind it is functional.
For series [14], the system named is Oryctolagus cuniculus. The series is described as follows: Antiglaucoma activity in hypertonic saline-induced New Zealand white rabbit transient ocular hypertensive model assessed as IOP lowering efficacy at 0.5% administered topically immediately after hypertonic saline injection measured at 120 mins post dose. In kind it is functional.

Where only a bound is given, the exact number is not on record here.

As usually defined, the solubility is the dissolved amount per volume that the medium holds. The term pKa denotes the negative logarithm of the acid dissociation constant. Lower therefore signals a group that gives up its proton readily. Broadly, the logD is the decadic logarithm of the distribution of all forms, ionised or not, between an organic phase and buffer at a given pH. The low end stands for lower lipophilicity, the high end for higher lipophilicity.

`CCCN(CCC)Cc1no[n+]([O-])c1C#N.O=C(O)C(=O)O`: the Activity was 0% in series [1]; 18.1% in series [2]; 42.3% in [3]; -2.8 mmHg in the series with Oryctolagus cuniculus [8]; -5.3 mmHg with Oryctolagus cuniculus [9]; -8.5 mmHg in the series with Oryctolagus cuniculus [10]. Besides, the Activity in series [11] was 1.1%. For the same compound, the solubility at 1 h in [4] is 2 mg/mL. For the same compound, the solubility result in series [5] is reported as “Soluble”. The compound also yielded a pKa in series [6] of 5.46. In series [7], the logD at 20 min came to 2.74.

As for `CCN(C)Cc1no[n+]([O-])c1C#N.O=C(O)C(=O)O`, the Activity in series [1] turned out to be 0%; in series [2], 17.5%; in series [3] it was 40.9%; in [11] it was 2.4%. For the same compound, the solubility at 1 h in series [4] was more than 30 mg/mL. In addition, the solubility entry in series [5] is “Soluble”. Moreover, the pKa in series [6] was 5.79. In series [7], this compound showed a logD at 20 min of 1.31.

For the compound `N#Cc1c(CN2CCN(c3ncccn3)CC2)no[n+]1[O-]`, the Activity in series [1] is 0%; in series [2] it was 14.4%; in [3] it was 41.5%; in series [11] it was 0.9%. Moreover, the solubility at 1 h in series [4] was less than 0.5 mg/mL. Further, the solubility entry in series [5] is “Insoluble”. Also, the pKa in series [6] lay in the range of 2 to 5.38. Further, the logD at 20 min in series [7] came to 0.97.

`CN(C)Cc1no[n+]([O-])c1C(N)=O`: the Activity was 0% in series [1]; 1.4% in series [2]; 12.8% in series [3]; -8.6 mmHg in the series on Oryctolagus cuniculus [8]; -12 mmHg with Oryctolagus cuniculus [9]; 12.9% in series [11]. The solubility at 1 h in series [4] is more than 30 mg/mL. Also, the solubility result in series [5] is “Soluble”. Further, in series [6], the pKa worked out at 6.57. For the same compound, in [7], the logD at 20 min was -0.03.

For `N#Cc1c(CN2CCNCC2)no[n+]1[O-].O=C(O)C(F)(F)F`, the Activity in series [1] was 0%; in series [2], 15.4%; in the series with Oryctolagus cuniculus [8] it was -10.6 mmHg; with Oryctolagus cuniculus [9], -11.5 mmHg; in series [11], 96.3%. Further, in [4], the solubility at 1 h is more than 30 mg/mL. Besides, the solubility entry in [5] is recorded as “Soluble”. In addition, the pKa in [6] lay in the range of 2 to 8.81. In series [7], the logD at 20 min is -1.32.

As for `CCN(CC)Cc1no[n+]([O-])c1C#N.O=C(O)C(=O)O`, the Activity was 0% in series [1]; 15.5% in [2]; 41.3% in series [3]; -4.8 mmHg in the series with Oryctolagus cuniculus [8]; -8.9 mmHg in the series with Oryctolagus cuniculus [9]; 2.5% in series [11]. In [4], this compound registered a solubility at 1 h of more than 30 mg/mL. Also, the solubility result in [5] is given as “Soluble”. The compound further had a pKa in [6] of 5.8. Further, in series [7], the logD at 20 min was 1.98.

Turning to `CCOC(=O)/N=c1\c[n+](N2CCOCC2)[n-]o1`, the Activity in the series with Oryctolagus cuniculus [8] is listed as -8.17 mmHg; in the series with Oryctolagus cuniculus [9], -7.83 mmHg.

Turning to `CC(C)N(Cc1no[n+]([O-])c1C#N)C(C)C.CS(=O)(=O)O`, the Activity was determined as 0% in series [1], 16.5% in series [2], 41.9% in series [3] and 0.9% in [11]. This compound also yielded a solubility at 1 h in series [4] of more than 30 mg/mL. Also, in series [5], the solubility entry is listed as “Soluble”. In addition, in series [6], the pKa was determined as 5.35. The same compound came in with a logD at 20 min in [7] of 2.35.

`Cc1c(OCCN(C)C)no[n+]1[O-].O=C(O)C(=O)O`: the Activity is 0% in series [1]; 0% in series [2]; less than 1% in [3]; -9 mmHg in the series with Oryctolagus cuniculus [8]; -14 mmHg in the series with Oryctolagus cuniculus [9]; 76% in [11]. This compound also returned a solubility at 1 h in series [4] of more than 30 mg/mL. For the same compound, the solubility result in series [5] is “Soluble”. In series [6], this compound came in with a pKa of 7.9. This compound returned a logD at 20 min in series [7] of -0.28.

For the compound `CC(C)N(Cc1no[n+]([O-])c1C(N)=O)C(C)C`, the Activity in series [1] is 0%; in series [2], 1.2%; in series [3], 11.6%; in [11], 14.2%. This compound also registered a solubility at 1 h in series [4] of less than 0.5 mg/mL. Besides, in series [5], the solubility result was “Insoluble”. For the same compound, the pKa in series [6] was 6.62. Besides, the logD at 20 min in series [7] stood at 1.4.

Take `CN(C)CCCN(C)Cc1no[n+]([O-])c1C#N.O=C(O)C(F)(F)F`: the Activity in [1] was determined as 0%; in series [2], 13.5%; in series [3], 40.1%; in [11], 98.8%. For the same compound, the solubility at 1 h in series [4] was more than 30 mg/mL. Further, the solubility entry in series [5] is given as “Soluble”. The compound further registered a pKa in series [6] of 3.34 to 9.3. This compound also returned a logD at 20 min in [7] of -0.73.

For the compound `NC(=O)c1c(CO)no[n+]1[O-]`, the Activity in series [1] was 0%; in [2], 1.8%; in [3], 12%; in the series with Oryctolagus cuniculus [8] it was -2.9 mmHg; in the series on Oryctolagus cuniculus [9], -4.8 mmHg. In [4], this compound registered a solubility at 1 h of more than 30 mg/mL. Also, in series [5], the solubility entry was “Soluble”. In series [7], this compound yielded a logD at 20 min of -1.48.

On to `N#Cc1c(CN2CCC(Br)CC2)no[n+]1[O-].O=C(O)C(=O)O`, for which the Activity in [1] was 0%; in [2], 15.9%; in series [3], 40.5%; in series [11], less than 0.1%. The compound further registered a solubility at 1 h in [4] of less than 0.5 mg/mL. For the same compound, the solubility entry in [5] is “Insoluble”. For the same compound, the pKa in series [6] stood at 4.01. Also, the logD at 20 min in series [7] was 2.31.

As for `CN(C)Cc1no[n+]([O-])c1C#N.O=C(O)C(=O)O`, the Activity is 0% in series [1]; 16.1% in [2]; 43.9% in series [3]; -11.2 mmHg with Oryctolagus cuniculus [8]; -14.4 mmHg in the series with Oryctolagus cuniculus [9]; -8.6 mmHg in the series with Oryctolagus cuniculus [12]. The Activity in [11] is recorded as 2.6%. The solubility at 1 h in series [4] was more than 30 mg/mL. For the same compound, in series [5], the solubility result was “Soluble”. In series [6], this compound had a pKa of 5.82. Moreover, the logD at 20 min in series [7] amounted to 0.87.

As for `CC(C)(C)NC[C@H](O)COc1nsnc1N1CCOCC1` [TIMOLOL], the Activity was -7.17 mmHg with Oryctolagus cuniculus [13] and -7.33 mmHg in the series on Oryctolagus cuniculus [14].

Take `Cc1c(OCCN)no[n+]1[O-].O=C(O)C(=O)O`: the Activity in series [1] was 0%; in series [2] it was 0%; in series [3], less than 1%; with Oryctolagus cuniculus [8], -8.8 mmHg; with Oryctolagus cuniculus [9], -11.9 mmHg; in series [11], 95.2%. The solubility at 1 h in [4] is more than 30 mg/mL. Moreover, the solubility entry in [5] is recorded as “Soluble”. In series [6], the pKa was 8.7. This compound showed a logD at 20 min in series [7] of -1.54.

Consider `CCN(Cc1ccccc1)Cc1no[n+]([O-])c1C#N.O=C(O)C(=O)O`, for which the Activity in series [1] was 0%; in series [2] it was 16.4%; in [3] it was 41.7%; in [11] it was 1.5%. This compound also came in with a solubility at 1 h in series [4] of less than 0.5 mg/mL. In series [5], the solubility entry is listed as “Insoluble”. Also, the pKa in series [6] was found to be 5.58. In addition, the logD at 20 min in [7] was 2.62.

Source of the values: ChEMBL document CHEMBL4000212, “New furoxan derivatives for the treatment of ocular hypertension” (Bioorg Med Chem Lett, 2017).
